# System: compound-treated mice
# Assay: Neuropharmacological assay (SmartCube): behavioral activity signature and minimal effective dose
# Assay type: in vivo
# Details: for minimal effective dose: Mus musculus, ip, MED = dose having 50% or more total activity, read-out: Potency: minimal effective dose (MED), binned; for AD: ADHD (probability of activity signature) / AG: analgesic (probability of activity signature) / AX: anxiolytic (probability of activity signature) / CE: cognitive enhancer (probability of activity signature) / DP: anti-depressant (probability of activity signature) / MS: mood stabilizer (probability of activity signature) / PS: anti-psychotic (probability of activity signature) / SD: sedative hypnotic (probability of activity signature) / UN: uncharacterized CNS activity (probability of activity signature): i.p. 15 min before test, most efficacious dose(s)
# Procedure, shortened: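 Video-recorded behavior is compared algorithmically against a reference-compound database, yielding class probabilities (best dose reported). Compounds given i.p. in NMP/PEG/propylene glycol 15 min pre-test at 3 doses; potency as MED, the dose (mpk, range usually 0.3–30) reaching ≥50% total activity.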
SMILES,minimal effective dose,AD: ADHD (probability of activity signature),AG: analgesic (probability of activity signature),AX: anxiolytic (probability of activity signature),CE: cognitive enhancer (probability of activity signature),DP: anti-depressant (probability of activity signature),MS: mood stabilizer (probability of activity signature),PS: anti-psychotic (probability of activity signature),SD: sedative hypnotic (probability of activity signature),UN: uncharacterized CNS activity (probability of activity signature)
C[C@@H]1OCc2ccc(C(F)(F)F)cc2[C@@H]1N.Cl [Example 228],10 to 30 mg/kg,+ (LOQ ≤ + <5%),++ (5% ≤ ++ <25%),++ (5% ≤ ++ <25%),+ (LOQ ≤ + <5%),++ (5% ≤ ++ <25%),+ (LOQ ≤ + <5%),++ (5% ≤ ++ <25%),+ (LOQ ≤ + <5%),+++ (25% ≤ +++ <50%)
C[C@H]1OCc2ccc(C(F)(F)F)cc2[C@@H]1N.Cl [Example 229],3 to 10 mg/kg,+ (LOQ ≤ + <5%),+ (LOQ ≤ + <5%),++ (5% ≤ ++ <25%),++ (5% ≤ ++ <25%),++ (5% ≤ ++ <25%),+ (LOQ ≤ + <5%),++ (5% ≤ ++ <25%),+ (LOQ ≤ + <5%),+++ (25% ≤ +++ <50%)
COc1cccc2c1[C@H](N)[C@H](C)OC2.Cl [Example 230],3 to 10 mg/kg,+ (LOQ ≤ + <5%),+ (LOQ ≤ + <5%),++ (5% ≤ ++ <25%),++ (5% ≤ ++ <25%),+ (LOQ ≤ + <5%),+ (LOQ ≤ + <5%),++ (5% ≤ ++ <25%),+ (LOQ ≤ + <5%),++++ (50% ≤ ++++)
COc1cccc2c1[C@H](N)[C@@H](C)OC2.Cl [Example 231],10 to 30 mg/kg,+ (LOQ ≤ + <5%),++ (5% ≤ ++ <25%),++ (5% ≤ ++ <25%),++ (5% ≤ ++ <25%),++ (5% ≤ ++ <25%),+ (LOQ ≤ + <5%),+ (LOQ ≤ + <5%),+ (LOQ ≤ + <5%),+++ (25% ≤ +++ <50%)
COc1ccc2c(c1)CO[C@H](C)[C@H]2N.Cl [Example 232],10 to 30 mg/kg,+ (LOQ ≤ + <5%),++ (5% ≤ ++ <25%),++ (5% ≤ ++ <25%),+ (LOQ ≤ + <5%),+ (LOQ ≤ + <5%),+ (LOQ ≤ + <5%),+ (LOQ ≤ + <5%),+ (LOQ ≤ + <5%),++ (5% ≤ ++ <25%)
COc1ccc2c(c1)CO[C@@H](C)[C@H]2N.Cl [Example 233],> 30 mg/kg,+ (LOQ ≤ + <5%),++ (5% ≤ ++ <25%),++ (5% ≤ ++ <25%),++ (5% ≤ ++ <25%),+ (LOQ ≤ + <5%),+ (LOQ ≤ + <5%),+ (LOQ ≤ + <5%),+ (LOQ ≤ + <5%),+ (LOQ ≤ + <5%)
COc1cccc2c1CO[C@@H](C)[C@H]2N.Cl [Example 234],10 to 30 mg/kg,+ (LOQ ≤ + <5%),++ (5% ≤ ++ <25%),+++ (25% ≤ +++ <50%),++ (5% ≤ ++ <25%),+ (LOQ ≤ + <5%),+ (LOQ ≤ + <5%),++ (5% ≤ ++ <25%),++ (5% ≤ ++ <25%),++ (5% ≤ ++ <25%)
COc1cccc2c1CO[C@H](C)[C@H]2N.Cl [Example 235],> 30 mg/kg,+ (LOQ ≤ + <5%),+ (LOQ ≤ + <5%),++ (5% ≤ ++ <25%),+ (LOQ ≤ + <5%),+ (LOQ ≤ + <5%),+ (LOQ ≤ + <5%),+ (LOQ ≤ + <5%),+ (LOQ ≤ + <5%),+ (LOQ ≤ + <5%)
Cc1cc2c(cc1C)[C@H](N)[C@H](C)OC2.Cl [Example 237],10 to 30 mg/kg,+ (LOQ ≤ + <5%),+ (LOQ ≤ + <5%),++ (5% ≤ ++ <25%),+ (LOQ ≤ + <5%),+ (LOQ ≤ + <5%),+ (LOQ ≤ + <5%),++ (5% ≤ ++ <25%),+++ (25% ≤ +++ <50%),++ (5% ≤ ++ <25%)
Cc1cc2c(cc1C)[C@H](N)[C@@H](C)OC2.Cl [Example 238],10 to 30 mg/kg,+ (LOQ ≤ + <5%),+ (LOQ ≤ + <5%),++ (5% ≤ ++ <25%),++ (5% ≤ ++ <25%),+ (LOQ ≤ + <5%),+ (LOQ ≤ + <5%),++ (5% ≤ ++ <25%),+ (LOQ ≤ + <5%),++++ (50% ≤ ++++)
C[C@@H]1OCc2ccc3c(c2[C@@H]1N)CCCO3.Cl [Example 248],10 to 30 mg/kg,+ (LOQ ≤ + <5%),++ (5% ≤ ++ <25%),++ (5% ≤ ++ <25%),++ (5% ≤ ++ <25%),+ (LOQ ≤ + <5%),+ (LOQ ≤ + <5%),+ (LOQ ≤ + <5%),+ (LOQ ≤ + <5%),+++ (25% ≤ +++ <50%)
C[C@H]1OCc2ccc3c(c2[C@@H]1N)CCCO3.Cl [Example 249],3 to 10 mg/kg,+ (LOQ ≤ + <5%),++ (5% ≤ ++ <25%),++ (5% ≤ ++ <25%),++ (5% ≤ ++ <25%),+ (LOQ ≤ + <5%),+ (LOQ ≤ + <5%),++ (5% ≤ ++ <25%),+ (LOQ ≤ + <5%),+++ (25% ≤ +++ <50%)
CCC[C@@H]1OCc2ccccc2[C@@H]1N [Example 250],3 to 10 mg/kg,++ (5% ≤ ++ <25%),+ (LOQ ≤ + <5%),++ (5% ≤ ++ <25%),+ (LOQ ≤ + <5%),+ (LOQ ≤ + <5%),++ (5% ≤ ++ <25%),++ (5% ≤ ++ <25%),++ (5% ≤ ++ <25%),+ (LOQ ≤ + <5%)
Cc1ccc2c(c1)CO[C@H](C)[C@H]2N [Example 252],< 3 mg/kg,+ (LOQ ≤ + <5%),+ (LOQ ≤ + <5%),+ (LOQ ≤ + <5%),+ (LOQ ≤ + <5%),++ (5% ≤ ++ <25%),++ (5% ≤ ++ <25%),++ (5% ≤ ++ <25%),++ (5% ≤ ++ <25%),++++ (50% ≤ ++++)
Cc1ccc2c(c1)CO[C@@H](C)[C@@H]2N [Example 253],3 to 10 mg/kg,+ (LOQ ≤ + <5%),+ (LOQ ≤ + <5%),+ (LOQ ≤ + <5%),+ (LOQ ≤ + <5%),++ (5% ≤ ++ <25%),++ (5% ≤ ++ <25%),++ (5% ≤ ++ <25%),++ (5% ≤ ++ <25%),++ (5% ≤ ++ <25%)
